Reference: patent US5475029A, “Farnesyl compounds as cholesterol lowering agents” (The Board of Trustees of the Leland Stanford Junior …, priority 1993, dated 1995)

Tested on: cholesterol biosynthetic pathway
Assay: TLC distribution of [3H]acetate-derived non-saponifiable lipids (site of metabolic block)
Assay type: cell-based
Set-up: radioactivity in the cell-derived fraction co-migrating with lanosterol / radioactivity in the cell-derived fraction co-migrating with squalene / radioactivity in the cell-derived fraction co-migrating with cholesterol / remaining radioactivity in the cell-derived fraction scattered throughout the rest of the TLC lane: concentration or dose not given beside the values
Protocol: Lipid Saponification and Extraction Procedure Saponification and extraction of lipids from cell and media samples was performed as previously described in Bradfute, et al. (1992) J.B.C. 267:18308-18314.
Thin Layer Chromatography--TLC was performed using Analtech 250 μm silica gel G plates with a hexanes/diethyl ether (1:1) solvent system. Lipid standards were visualized by iodine staining. Bands were scraped from the plate and their radioactivity was measured.
Quantification of Radioactivity--Samples were suspended in 4 ml of scintillation fluid (Cytoscint from ICN). The radioactivity of the samples was measured using a Beckman LS-7500 scintillation counter.
To determine tile site of tile metabolic block caused by farnesyl acetate and ethyl farnesyl ether, the non-saponifiable lipids from cells grown in the presence of the farnesyl compounds were examined for the accumulation of intermediates in the cholesterol biosynthetic pathway. The cells were only labeled for 1 hour and only treated with the farnesyl compounds during the labeling period; so that any intermediates which accumulated would be as a result of the inhibitory effects of the farnesol compounds and not subsequent regulatory effects on HMG-CoA reductase. CHO-HMGal cells were incubated with [^3 H]acetate and either farnesyl acetate, ethyl farnesyl ether, or no additive. The non-saponifiable lipids were isolated from both the cell, and the medium and separated by TLC.

[1] = 1 hour labeling with [3H]acetate, compound only during labeling

CC(=O)OCC=C(C)CCC=C(C)CCC=C(C)C [farnesyl acetate]
radioactivity in the cell-derived fraction co-migrating with cholesterol [1]: 4%
radioactivity in the cell-derived fraction co-migrating with lanosterol [1]: 74%
radioactivity in the cell-derived fraction co-migrating with squalene [1]: 9%
remaining radioactivity in the cell-derived fraction scattered throughout the rest of the TLC lane [1]: 13%
total non-saponifiable radioactivity found in the medium (untreated 6%): 12%
total non-saponifiable radioactivity found in the cells (untreated 94%): 88%
increase in media-derived material co-migrating with farnesol (versus untreated sample): ~3 fold
